Measurements published in ChEMBL document CHEMBL1667751, “Synthesis and antimicrobial activity of highly functionalised novel β-lactam grafted spiropyrrolidines and pyrrolizidines” (2011).

Legend:
[1] = tested on: Proteus vulgaris; assay: Antibacterial activity against Proteus vulgaris at 100 ug/ml after 24 hrs agar diffusion method; format: functional; conditions: read-out: DIZ
[2] = tested on: Proteus mirabilis; assay: Antibacterial activity against Proteus mirabilis at 100 ug/ml after 24 hrs agar diffusion method; format: functional; conditions: read-out: DIZ
[3] = tested on: Proteus vulgaris; assay: Antibacterial activity against Proteus vulgaris at 75 ug/ml after 24 hrs agar diffusion method; format: functional; conditions: read-out: DIZ
[4] = tested on: Proteus vulgaris; assay: Antibacterial activity against Proteus vulgaris at 25 ug/ml after 24 hrs agar diffusion method; format: functional; conditions: read-out: DIZ
[5] = tested on: Proteus mirabilis; assay: Antibacterial activity against Proteus mirabilis at 50 ug/ml after 24 hrs agar diffusion method; format: functional; conditions: read-out: DIZ
[6] = tested on: Proteus vulgaris; assay: Antibacterial activity against Proteus vulgaris at 50 ug/ml after 24 hrs agar diffusion method; format: functional; conditions: read-out: DIZ
[7] = tested on: Staphylococcus aureus; assay: Antibacterial activity against Staphylococcus aureus at 25 ug/ml after 24 hrs agar diffusion method; format: functional; conditions: read-out: DIZ
[8] = tested on: Staphylococcus aureus; assay: Antibacterial activity against Staphylococcus aureus at 50 ug/ml after 24 hrs agar diffusion method; format: functional; conditions: read-out: DIZ
[9] = tested on: Proteus mirabilis; assay: Antibacterial activity against Proteus mirabilis at 75 ug/ml after 24 hrs agar diffusion method; format: functional; conditions: read-out: DIZ
[10] = tested on: Salmonella typhi; assay: Antibacterial activity against Salmonella typhi at 100 ug/ml after 24 hrs agar diffusion method; format: functional, Salmonella enterica subsp. enterica serovar Typhi; conditions: Salmonella enterica, read-out: DIZ
[11] = tested on: Salmonella typhi; assay: Antibacterial activity against Salmonella typhi at 25 ug/ml after 24 hrs agar diffusion method; format: functional, Salmonella enterica subsp. enterica serovar Typhi; conditions: Salmonella enterica, read-out: DIZ
[12] = tested on: Staphylococcus aureus; assay: Antibacterial activity against Staphylococcus aureus at 100 ug/ml after 24 hrs agar diffusion method; format: functional; conditions: read-out: DIZ
[13] = tested on: Staphylococcus aureus; assay: Antibacterial activity against Staphylococcus aureus at 75 ug/ml after 24 hrs agar diffusion method; format: functional; conditions: read-out: DIZ
[14] = tested on: Salmonella typhi; assay: Antibacterial activity against Salmonella typhi at 75 ug/ml after 24 hrs agar diffusion method; format: functional, Salmonella enterica subsp. enterica serovar Typhi; conditions: Salmonella enterica, read-out: DIZ
[15] = tested on: Salmonella typhi; assay: Antibacterial activity against Salmonella typhi at 50 ug/ml after 24 hrs agar diffusion method; format: functional, Salmonella enterica subsp. enterica serovar Typhi; conditions: Salmonella enterica, read-out: DIZ
[16] = tested on: Proteus mirabilis; assay: Antibacterial activity against Proteus mirabilis at 25 ug/ml after 24 hrs agar diffusion method; format: functional; conditions: read-out: DIZ

SMILES | zone of inhibition at 100 µg/mL [1] [mm] | zone of inhibition at 100 µg/mL [2] [mm] | zone of inhibition at 75 µg/mL [3] [mm] | zone of inhibition at 25 µg/mL [4] [mm] | zone of inhibition at 50 µg/mL [5] [mm] | zone of inhibition at 50 µg/mL [6] [mm] | zone of inhibition at 25 µg/mL [7] [mm] | zone of inhibition at 50 µg/mL [8] [mm] | zone of inhibition at 75 µg/mL [9] [mm] | zone of inhibition at 100 µg/mL [10] [mm] | zone of inhibition at 25 µg/mL [11] [mm] | zone of inhibition at 100 µg/mL [12] [mm] | zone of inhibition at 75 µg/mL [13] [mm] | zone of inhibition at 75 µg/mL [14] [mm] | zone of inhibition at 50 µg/mL [15] [mm] | zone of inhibition at 25 µg/mL [16] [mm]
CN(C)[C@@H]1C(O)=C(C(N)=O)C(=O)[C@@]2(O)C(O)=C3C(=O)c4c(O)cccc4[C@@](C)(O)[C@H]3C[C@@H]12 [TETRACYCLINE] | > 40 | > 40 | 28 | 18 | 24 | 24 | 18 | 22 | 28 | > 40 | 18 | > 40 | 28 | 28 | 22 | 18
CCOC(=O)[C@@H]1[C@@H]([C@H]2[C@@H](c3ccccc3)C(=O)N2c2ccc(OC)cc2)C2CCCN2[C@@]12C(=O)c1cccc3cccc2c13 (stereo not given in full) | 20 | 18 | 17 |  | 11 | 12 | 9 | 14 | 14 |  |  | 21 | 19 |  |  | 9
CCOC(=O)[C@@H]1[C@@H]([C@H]2[C@@H](Oc3ccccc3)C(=O)N2c2ccc(OC)cc2)CN(C)[C@]12C(=O)Nc1ccccc12 | 21 | 32 | 18 | 11 | 13 | 14 | 14 | 19 | 22 | 28 | 11 | 26 | 21 | 20 | 14 | 12
CCOC(=O)[C@@H]1[C@@H]([C@H]2[C@@H](c3ccccc3)C(=O)N2c2ccc(OC)cc2)CN(C)[C@]12C(=O)Nc1ccccc12 | 20 | 21 | 16 | 11 | 14 | 14 | 14 | 18 | 18 | 29 | 12 | 27 | 23 | 21 | 15 | 11
CCOC(=O)[C@@H]1[C@@H]([C@H]2[C@@H](c3ccccc3)C(=O)N2c2ccc(OC)cc2)C2CCCN2[C@]12C(=O)Nc1ccccc12 (stereo not given in full) | > 40 | 32 | 25 | 13 | 18 | 21 | 9 | 16 | 21 | 26 | 11 | 31 | 21 | 18 | 14 | 14
CCOC(=O)[C@@H]1[C@@H]([C@H]2[C@@H](Oc3ccccc3)C(=O)N2c2ccc(OC)cc2)CN(C)[C@@]12C(=O)c1cccc3cccc2c13 | 20 | 20 | 15 | 9 | 11 | 11 |  | 9 | 15 | 16 | 9 | 19 | 15 | 14 | 11 | 9
CCOC(=O)[C@@H]1[C@@H]([C@H]2[C@@H](c3ccccc3)C(=O)N2c2ccc(OC)cc2)CN(C)C12C(=O)c1ccccc1C2=O | 21 | 18 | 18 | 11 | 13 | 14 | 11 | 15 | 14 | 18 |  | 22 | 18 | 13 | 9 | 11
